Measurements reported in paper PMC9782245, “Synthesis and Structural Optimization of 2,7,9-Trisubstituted purin-8-ones as FLT3-ITD Inhibitors” (International Journal of Molecular Sciences, 2022).
Values joined by “and” are separate entries in the source; they are usually repeats but may differ in a detail not shown here. Identical values can stand only once. Like-named read-outs stand apart in the source and are kept apart here.

Columns and labels:
FLT3-ITD = biological target: T1, FLT3-ITD (Homo sapiens, UniProt P36888, ITD); test: Kinase inhibition assay FLT3-ITD; assay type: biochemical
T1 sequence (P36888 27-993): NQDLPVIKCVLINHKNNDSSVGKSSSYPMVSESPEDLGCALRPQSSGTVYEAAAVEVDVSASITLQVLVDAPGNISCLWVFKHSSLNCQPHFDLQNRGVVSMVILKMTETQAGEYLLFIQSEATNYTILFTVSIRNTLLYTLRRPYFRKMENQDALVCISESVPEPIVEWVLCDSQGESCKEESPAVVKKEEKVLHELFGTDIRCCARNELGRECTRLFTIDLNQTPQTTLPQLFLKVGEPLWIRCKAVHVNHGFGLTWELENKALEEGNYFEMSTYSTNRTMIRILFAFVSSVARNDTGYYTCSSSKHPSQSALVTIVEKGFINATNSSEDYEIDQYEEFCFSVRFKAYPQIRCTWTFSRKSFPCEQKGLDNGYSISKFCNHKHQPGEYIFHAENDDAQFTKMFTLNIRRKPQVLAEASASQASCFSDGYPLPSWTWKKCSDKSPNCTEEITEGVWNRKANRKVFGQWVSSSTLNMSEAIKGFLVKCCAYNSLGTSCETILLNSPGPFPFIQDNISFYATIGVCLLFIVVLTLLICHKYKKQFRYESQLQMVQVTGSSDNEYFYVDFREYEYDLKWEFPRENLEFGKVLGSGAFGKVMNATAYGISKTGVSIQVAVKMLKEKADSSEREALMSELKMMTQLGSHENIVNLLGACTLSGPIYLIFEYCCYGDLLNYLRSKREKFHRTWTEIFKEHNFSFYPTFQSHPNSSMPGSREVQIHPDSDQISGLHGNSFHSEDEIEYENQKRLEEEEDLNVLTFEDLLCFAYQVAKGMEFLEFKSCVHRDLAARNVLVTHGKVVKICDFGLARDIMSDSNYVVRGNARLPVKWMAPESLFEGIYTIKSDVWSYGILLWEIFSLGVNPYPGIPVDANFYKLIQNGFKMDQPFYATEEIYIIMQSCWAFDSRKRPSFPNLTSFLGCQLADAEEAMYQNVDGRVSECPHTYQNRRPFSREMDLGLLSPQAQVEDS
Experimental: (§1) Newly prepared compounds 12–15 were assayed for inhibition of FLT3-ITD kinase as well as CDK4 and CDK2, known off-targets of structurally related compounds. We observed that CDK4 was sensitive to nearly all compounds with IC50 values in mid-nanomolar values.
(§2) CDK/cyclin complexes and FLT3 kinases were assayed as previously described. Protein kinase selectivity was evaluated at a single concentration (1 µM) by screening against 30 enzymes at Eurofins Discovery (France).

CDK4/D1 = CDK4/D1 (Homo sapiens, UniProt P11802); test: Kinase inhibition assay CDK4/D1; assay type: biochemical
Chain of CDK4/D1 (P11802 whole entry): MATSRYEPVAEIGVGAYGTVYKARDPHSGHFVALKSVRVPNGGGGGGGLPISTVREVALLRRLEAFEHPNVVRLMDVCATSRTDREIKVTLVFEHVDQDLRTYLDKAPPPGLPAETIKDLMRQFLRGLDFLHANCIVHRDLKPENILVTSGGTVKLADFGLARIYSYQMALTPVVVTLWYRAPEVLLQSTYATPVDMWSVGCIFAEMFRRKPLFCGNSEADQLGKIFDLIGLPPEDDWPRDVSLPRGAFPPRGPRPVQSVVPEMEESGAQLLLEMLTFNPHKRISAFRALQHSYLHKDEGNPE
Chain of CDK4/D1 (P24385 whole entry partner): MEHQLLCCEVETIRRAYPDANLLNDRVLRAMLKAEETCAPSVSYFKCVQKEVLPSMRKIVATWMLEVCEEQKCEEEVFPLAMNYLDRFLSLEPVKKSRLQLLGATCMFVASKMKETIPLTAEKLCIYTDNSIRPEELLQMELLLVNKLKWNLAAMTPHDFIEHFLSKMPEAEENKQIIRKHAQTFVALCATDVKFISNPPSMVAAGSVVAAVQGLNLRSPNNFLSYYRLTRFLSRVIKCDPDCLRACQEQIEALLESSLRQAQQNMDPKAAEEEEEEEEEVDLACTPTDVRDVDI
Experimental: as §1, §2

MV4-11 cells = test: Resazurin-based viability assay, MV4-11; assay type: cell-based, Human; conditions: for GI50: Homo sapiens, MV4-11, 72 h, resazurin, at least duplicate experiments
From the text: (§3) In parallel to kinase assays, we measured the effect of compounds on the viability of cancer cell lines MV4-11 and K562 using a resazurin-based assay. MV4-11 is an AML cell line dependent on a constitutively activated FLT3-ITD kinase with high sensitivity to FLT3 inhibition, K562 cells (chronic myelogenous leukemia) are independent on FLT3.
(§4) Human cell lines were obtained from the European Collection of Authenticated Cell Cultures (K562) and Cell lines service (MV4-11) and were cultivated according to the provider’s instructions. Briefly, cells were maintained in RPMI-1640 (MV4-11) or DMEM (K562) supplemented with 10% fetal bovine serum, penicillin (100 U/mL), and streptomycin (0.1 mg/mL) at 37 °C in 5% CO2. For the viability assays, cells were treated in triplicate with six different doses of each compound for 72 h. After treatments, the resazurin (Sigma Aldrich, St. Louis, MO, USA) solution was added for 4 h, and the fluorescence of resorufin corresponding to live cells was measured at 544/590 nm (excitation/emission) using a Fluoroskan Ascent microplate reader (Labsystems). The GI50 value, the drug concentration lethal to 50% of the cells, was calculated from the dose-response curves that resulted from the assays.

K562 cells = test: Resazurin-based viability assay, K562; assay type: cell-based; conditions: Homo sapiens, 72 h, at least duplicate experiments
From the text: as §3, §4

CDK2/E = CDK2/E (Homo sapiens, UniProt P24941); test: Kinase inhibition assay CDK2/E; assay type: biochemical
Experimental: as §1, §2

[1] = at least duplicate experiments, read-out: IC50 FLT3-ITD
[2] = at least duplicate experiments, read-out: IC50 CDK4/D1
[3] = at least duplicate experiments, read-out: IC50 CDK2/E

Row | Structure (SMILES) | IC50 (FLT3-ITD; [1]) [µM] | IC50 (FLT3-ITD; read-out: IC50 FLT3) [µM] | IC50 (CDK4/D1; [2]) | IC50 (CDK4/D1; read-out: IC50 CDK4) [µM] | GI50 (MV4-11 cells) [µM] | GI50 (K562 cells) [µM] | IC50 (CDK2/E; [3]) | melting point [°C] | selectivity index (ratio for GI50's of K562 and MV4-11 cells) (MV4-11 cells; K562 / MV4-11) | IC50 (CDK2/E; read-out: IC50 CDK2) [µM]
1 | Cn1c(=O)n(C2CCC2)c2nc(Nc3ccc(N4CCNCC4)cc3)ncc21 [14c] | 0.056 | 0.05 to 0.06 | 0.524 µM | 0.4 to 0.52 | 0.11 | 1.04 | 3.9 µM |  |  | 
2 | CC1CCC(n2c(=O)[nH]c3cnc(Nc4ccc(N5CCNCC5)cc4)nc32)CC1 (stereo not shown) [13c] | 1.05 |  | 0.451 µM |  | 0.7 | 1.9 | 2.56 µM |  |  | 
3 | O=c1[nH]c2cnc(Nc3ccc(N4CCNCC4)cc3)nc2n1C1CCCCC1 [13b] | 1.59 |  | 0.782 µM |  | 0.69 | 1.78 | 3.36 µM |  |  | 
4 | O=c1[nH]c2cnc(Nc3ccc(N4CCNCC4)cc3)nc2n1C1CCCCCC1 [13d] | 0.425 |  | 0.479 µM |  | 0.56 | 1.58 | 1 µM |  |  | 
5 | COc1ccc(-n2c(=O)n(C)c3cnc(Nc4ccc(N5CCNCC5)cc4)nc32)cc1 [14q] | 0.262 |  | 0.488 µM |  | 0.4 | 1.97 | > 1 µM and 6.18 µM | 270 to 272 |  | 
6 | COc1ccccc1-n1c(=O)n(C)c2cnc(Nc3ccc(N4CCNCC4)cc3)nc21 [14p] | 0.306 |  | 2.72 µM |  | 0.31 | 0.37 | 1.59 µM | 185 to 187 |  | 
7 | Cn1c(=O)n(C=Cc2ccc(F)cc2)c2nc(Nc3ccc(N4CCNCC4)cc3)ncc21 [14t] | 0.345 |  | 0.216 µM |  | 0.52 | 2.29 | > 1 µM and 7.7 µM | 248 to 250 |  | 
8 | COc1ccc(Cn2c(=O)n(C)c3cnc(Nc4ccc(N5CCNCC5)cc4)nc32)c(OC)c1 [14r] | 0.456 |  | > 20 µM |  | 0.9 | 11.9 | > 1 µM and 20 µM | 102 to 104 |  | 
9 | Cn1c(=O)n(C2CCOCC2)c2nc(Nc3ccc(N4CCNCC4)cc3)ncc21 [14k] | 0.45 |  | > 1 µM and 2.53 µM |  | 0.59 | 18.2 | > 1 µM and 9.25 µM | 124 to 126 |  | 
10 | Cn1c(=O)n(-c2ccccc2)c2nc(Nc3ccc(N4CCNCC4)cc3)ncc21 [14m] | 0.054 | 0.05 to 0.06 | 0.4 µM | 0.4 to 0.52 | 0.34 | 3.03 | 3.74 µM | 120 to 122 |  | 
11 | CC(C)n1c(=O)n(C2CCCCC2)c2nc(Nc3ccc(N4CCNCC4)cc3)ncc21 [15b] | 0.068 |  | 2.12 µM |  | 0.13 | 1.51 | 10.3 µM | 132 to 134 |  | 
12 | FC(F)(F)c1nc2cnc(Nc3ccc(N4CCNCC4)cc3)nc2n1C1CCCCCC1 [12d] | 0.088 |  | 0.022 µM |  | 0.25 | 2.45 | 0.15 µM | 216 to 218 |  | 
13 | CC(C)n1c(=O)n(C2CCCCCC2)c2nc(Nc3ccc(N4CCNCC4)cc3)ncc21 [15d] | 0.027 |  | 1.1 µM |  | 0.1 | 1.18 | 2.32 µM |  |  | 
14 | Cn1c(=O)n(C2CCCCCCC2)c2nc(Nc3ccc(N4CCNCC4)cc3)ncc21 [14i] | 0.012 | ≤ 0.3 | 0.025 µM | ≤ 0.3 | 0.09 | 2.46 | 0.09 µM |  | > 20 | ≤ 0.3
15 | FC(F)(F)c1nc2cnc(Nc3ccc(N4CCNCC4)cc3)nc2n1C1CCCCC1 [12b] | 0.06 |  | 0.016 µM |  | 0.11 | 1.17 | 0.23 µM | 218 to 220 |  | 
16 | O=c1[nH]c2cnc(Nc3ccc(N4CCNCC4)cc3)nc2n1C1CCCC1 [13a] | 2.37 |  | 2.88 µM |  | 0.68 | 1.63 | 24.5 µM | 200 to 202 |  | 
17 | Cn1c(=O)n(C2CCCCCC2)c2nc(Nc3ccc(N4CCNCC4)cc3)ncc21 [14h] | 0.034 | ≤ 0.3 | 0.022 µM | ≤ 0.3 | 0.1 | 1.48 | 0.06 µM | 256 to 258 |  | ≤ 0.3
18 | CC1CCC(n2c(=O)n(C(C)C)c3cnc(Nc4ccc(N5CCNCC5)cc4)nc32)CC1 (stereo not shown) [15c] | 0.04 |  | 1.1 µM |  | 0.13 | 1.45 | 4.14 µM | 264 to 266 |  | 
19 | FC(F)(F)c1nc2cnc(Nc3ccc(N4CCNCC4)cc3)nc2n1C1CCCC1 [12a] | 0.224 |  | 0.051 µM |  | 0.22 | 1.11 | 1.63 µM | 232 to 234 |  | 
20 | Cn1c(=O)n([C@H]2CC[C@H](O)CC2)c2nc(Nc3ccc(N4CCNCC4)cc3)ncc21 [14f] | 0.132 |  | 0.25 µM |  | 0.51 | 9.37 | > 1 µM and 2.87 µM | 272 to 274 |  | 
21 | Cn1c(=O)n(-c2cccc3ccccc23)c2nc(Nc3ccc(N4CCNCC4)cc3)ncc21 [14s] | 0.85 |  | > 1 µM and 6.9 µM |  | 0.33 | 2.53 | > 1 µM and 9.53 µM |  |  | 
